Results reported in US8470587B2, “129Xe biosensors and their use” (The Trustees of the University of Pennsylvania, priority 2006, dated 2013).
Ends that are not written are not given here.

What was measured:
[1] = 278 K in C2D2Cl4; cited from earlier work
[2] = tested on: cells; assay: cytotoxicity, standard MTT assay; type: cell-based; details: 1-100 μM, 24 h soak, average of four trials
Description: Cytotoxicity was assessed using a standard MTT assay protocol.

[3] = tested on: lung and pancreatic cancer cell lines; assay: cell uptake of tetraRGD Xe biosensor, blocking by cyclic RGD peptide; type: cell-based
Description: Very efficient uptake by Xe biosensors containing tetraRGD was found in lung and pancreatic cancer cell lines, and no uptake by red blood cells, as shown in FIGS. 26 and 27.

[4] = tested on: NCI-H1975; assay: cellular uptake by confocal microscopy; type: cell-based; details: 15 minutes incubation; 2 μM, 2 mM; cells expressing αvβ3 integrin
Description: (§1) Cells were incubated with 2 mM tetraRGD-cryptophane for 15 minutes, washed, and imaged via confocal microscope. […] A-B) CAPAN-2, C-D) HFL-1, E-F) NCI-H1975, G-H) human red blood cells.
(§2) Cellular uptake was confirmed via confocal microscopy. Cells were incubated with 2 μM tetraRGD-cryptophane for 15 minutes, washed, and imaged via confocal microscope. […] A-B) CAPAN-2, C-D) HFL-1, E-F) NCI-H1975, G-H) human red blood cells.

[5] = tested on: HFL-1; assay: cellular uptake by confocal microscopy; type: cell-based; details: 15 minutes incubation; 2 μM, 2 mM; cells expressing αvβ3 integrin
Description: as §1, §2

[6] = tested on: human red blood cells; assay: cellular uptake by confocal microscopy; type: cell-based; details: 15 minutes incubation; 2 μM, 2 mM; cells not expressing αvβ3; listed as tetraRGD-cryptophane
Description: as §1, §2

[7] = tested on: CAPAN-2; assay: cellular uptake by confocal microscopy; type: cell-based; details: 15 minutes incubation; 2 μM, 2 mM; cells expressing αvβ3 integrin
Description: as §1, §2

Molecule | KA of xenon binding [1] | cytotoxicity (cell viability relative to healthy controls) [2] | cytotoxicity (cell viability relative to healthy controls) ([2]; listed as Cy3 dye-labeled ^129Xe biosensor) | cell uptake in presence of cyclic RGD peptide [3] | cellular uptake (fluorescence) [4] | cellular uptake (fluorescence) [5] | cellular uptake (fluorescence) [6] | cellular uptake (fluorescence) [7]
COc1cc2c3cc1OCCOc1cc4c(cc1OC)Cc1cc5c(OC)cc1Cc1cc(c(OC)cc1C4)OCCOc1cc(c(cc1OC)C3)Cc1cc(OC)c(cc1C2)OCCO5 [cryptophane-A] | 3900 M⁻¹ |  |  |  |  |  |  | 
Cy3-labelled ^129Xe biosensor: cryptophane biosensor containing the tetra-RGD peptide (RGDRGDRGDRGD, SEQ ID. No. 30), labeled with Cy3, targeting αvβ3 integrin (also: cryptophane cage conjugated, Cy3 labeled; listed as Homo sapiens) |  | non-toxic | not toxic | blocked | exhibited fluorescence | exhibited fluorescence | showed little fluorescence | exhibited fluorescence
